Legend:
AD38 cells = experiment: Viability of AD38 cells (Promega CellTiter-Glo); type: cell-based; conditions: 10 μM compound, 6 days, CellTiter-Glo luminescence normalized to DMSO control (100%)
In short: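 After 6 days of compound exposure at 37° C (compound added as 10× solution in 10% DMSO; 50,000 cells/well, collagen-coated), medium was replaced with tetracycline-free DMEM/F12, 2% FBS, 1% DMSO. CellTiter-Glo luminescence was then recorded and normalized to DMSO-treated wells as 100% viability.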

[1] = tested on: HBV viral load in AD38 cells; experiment: Viral load production in AD38 cells, quantitative PCR of the core sequence in supernatant; type: cell-based; conditions: Hepatitis B virus, 144 h, 10 μM compound, 6 days at 37° C., supernatant qPCR, relative to DMSO control; read-out: AD38 Viral Load (%) (VL with cmpd/VL in DMSO control) at 10 μM

SMILES: N#Cc1ncc(CNC(=O)c2ccc3c(c2)NC(=O)c2ccccc2S3)s1 [compound 1627]
- AD38 Viability Normalized Result (cmpd/DMSO %) at 10 μM (AD38 cells): 63%
- activity at 10 µM [1]: 6%

SMILES: CC1c2ccc(C(=O)NCc3cnc(-c4ccc(O)cc4)s3)cc2NC(=O)c2ccccc21 (centres unmarked) [compound 1754]
- AD38 Viability Normalized Result (cmpd/DMSO %) at 10 μM (AD38 cells): 93%
- activity at 10 µM [1]: 1.6%

SMILES: O=C(NCc1cnc(-c2ccc(CCCCN3CCOCC3)cc2)s1)c1ccc2c(c1)NC(=O)c1ccccc1S2(=O)=O [compound 11056]
- AD38 Viability Normalized Result (cmpd/DMSO %) at 10 μM (AD38 cells): 96%
- activity at 10 µM [1]: 0.8%

SMILES: COc1cccc(Cc2ncc(CNC(=O)c3ccc4c(c3)NC(=O)c3ccccc3S4(=O)=O)s2)c1 [compound 1822, N-((2-(3-methoxybenzyl)thiazol-5-yl)methyl)-11-oxo-10, 11-dihydrodibenzo [b, f] [1, 4] thiazepine-8-carboxamide 5,5-dioxide]
- AD38 Viability Normalized Result (cmpd/DMSO %) at 10 μM (AD38 cells): 89%
- activity at 10 µM [1]: 1.5%

SMILES: O=C(O)COc1ccc(-c2ncc(CNC(=O)c3ccc4c(c3)NC(=O)c3ccccc3O4)s2)cc1 [compound 1620, 2-(4-(5-((11-oxo-10, 11-dihydrodibenzo [b, f] [1, 4]oxazepine-8-carboxamido)methyl)thiazol-2-yl)phenoxy) acetic acid]
- AD38 Viability Normalized Result (cmpd/DMSO %) at 10 μM (AD38 cells): 103%
- activity at 10 µM [1]: 41.9%

SMILES: Cl.NCCc1ccccc1-c1ncc(CNC(=O)c2ccc3c(c2)NC(=O)c2ccccc2S3(=O)=O)s1 [compound 1842, N-((2-(2-(2-aminoethyl)phenyl)thiazol-5-yl)methyl)-11-oxo-10, 11-dihydrodibenzo [b, f] [1, 4] thiazepine-8-carboxamide 5,5-dioxide hydrochloride]
- AD38 Viability Normalized Result (cmpd/DMSO %) at 10 μM (AD38 cells): 109%
- activity at 10 µM [1]: 46.5%

SMILES: Cl.O=C(NCc1cnc(-c2ccc(OC[C@@H]3CCCN3)cc2)s1)c1ccc2c(c1)NC(=O)c1ccccc1S2(=O)=O [compound 11029, (S)-11-oxo-N-((2-(4-(pyrrolidin-2-ylmethoxy)phenyl)thiazol-5-yl)methyl)-10, 11-dihydrodibenzo [b, f] [1, 4] thiazepine-8-carboxamide 5,5-dioxide hydrochloride]
- AD38 Viability Normalized Result (cmpd/DMSO %) at 10 μM (AD38 cells): 105%
- activity at 10 µM [1]: 5.3%

SMILES: O=C(NCc1cnc(-c2ccc(SCCCN3CCCCC3)cc2)s1)c1ccc2c(c1)NC(=O)c1ccccc1S2(=O)=O [compound 11065, 11-oxo-N-((2-(4-((3-(piperidin-1-yl)propyl)thio)phenyl)thiazol-5-yl)methyl)-10, 11-dihydrodibenzo [b, f] [1, 4] thiazepine-8-carboxamide 5,5-dioxide]
- AD38 Viability Normalized Result (cmpd/DMSO %) at 10 μM (AD38 cells): 66%
- activity at 10 µM [1]: 1.2%

SMILES: CN(C)CC1(COc2ccc(-c3ncc(CNC(=O)c4ccc5c(c4)NC(=O)c4ccccc4S5(=O)=O)s3)cc2)CCC1 [compound 11113]
- AD38 Viability Normalized Result (cmpd/DMSO %) at 10 μM (AD38 cells): 92%
- activity at 10 µM [1]: 4.9%

SMILES: O=C(O)COc1ccc(-c2ncc(CNC(=O)c3ccc4c(c3)NC(=O)c3ccccc3S4(=O)=O)s2)cc1 [compound 1581, 2-(4-(5-((5,5-dioxido-11-oxo-10, 11-dihydrodibenzo [b, f] [1, 4]thiazepine-8-carboxamido)methyl)thiazol-2-yl)phenoxy) acetic acid]
- AD38 Viability Normalized Result (cmpd/DMSO %) at 10 μM (AD38 cells): 93%
- activity at 10 µM [1]: 34.4%

SMILES: CC(=O)Nc1ccc(-c2ncc(CNC(=O)c3ccc4c(c3)NC(=O)c3ccccc3S4(=O)=O)s2)cc1 [compound 1932]
- AD38 Viability Normalized Result (cmpd/DMSO %) at 10 μM (AD38 cells): 101%
- activity at 10 µM [1]: 2.2%

SMILES: Cc1ncc(CNC(=O)c2ccc3c(c2)NC(=O)c2ccc(Cl)cc2S3)s1 [compound 1544]
- AD38 Viability Normalized Result (cmpd/DMSO %) at 10 μM (AD38 cells): 88%
- activity at 10 µM [1]: 2.6%

SMILES: O=C(NCc1cnc(-c2ccc(O)cc2F)s1)c1ccc2c(c1)NC(=O)c1ccccc1O2 [compound 1704]
- AD38 Viability Normalized Result (cmpd/DMSO %) at 10 μM (AD38 cells): 96%
- activity at 10 µM [1]: 47.6%

SMILES: CN(C)c1ccc(-c2ncc(CNC(=O)c3ccc4c(c3)NC(=O)c3ccccc3O4)s2)cc1 [compound 1697]
- AD38 Viability Normalized Result (cmpd/DMSO %) at 10 μM (AD38 cells): 90%
- activity at 10 µM [1]: 5.5%

SMILES: CN(C)C1CCN(c2ncc(CNC(=O)c3ccc4c(c3)NC(=O)c3ccccc3S4(=O)=O)s2)CC1 [compound 1636]
- AD38 Viability Normalized Result (cmpd/DMSO %) at 10 μM (AD38 cells): 95%
- activity at 10 µM [1]: 76.9%

SMILES: O=C(NCc1cnc(-c2ccc(O)c(F)c2)s1)c1ccc2c(c1)NC(=O)c1ccccc1O2 [compound 1700]
- AD38 Viability Normalized Result (cmpd/DMSO %) at 10 μM (AD38 cells): 105%
- activity at 10 µM [1]: 9.2%

SMILES: O=C(NCc1cnc(N2CCOCC2)s1)c1ccc2c(c1)NC(=O)c1ccccc1S2 [compound 1598]
- AD38 Viability Normalized Result (cmpd/DMSO %) at 10 μM (AD38 cells): 97%
- activity at 10 µM [1]: 1.4%

SMILES: O=C(NCc1cnc(-c2ccc(OCCCN(CCO)CCO)cc2)s1)c1ccc2c(c1)NC(=O)c1ccccc1S2(=O)=O [compound 1998]
- AD38 Viability Normalized Result (cmpd/DMSO %) at 10 μM (AD38 cells): 99%
- activity at 10 µM [1]: 3.7%

SMILES: O=C(NCc1cnc(-c2ccc(N3CCCC3=O)cc2)s1)c1ccc2c(c1)NC(=O)c1ccccc1O2 [compound 1864]
- AD38 Viability Normalized Result (cmpd/DMSO %) at 10 μM (AD38 cells): 93%
- activity at 10 µM [1]: 3%

SMILES: CN(C)CCSc1ncc(CNC(=O)c2ccc3c(c2)NC(=O)c2ccccc2S3(=O)=O)s1 [compound 1590]
- AD38 Viability Normalized Result (cmpd/DMSO %) at 10 μM (AD38 cells): 95%
- activity at 10 µM [1]: 6.2%

SMILES: O=C(NCc1cnc(-c2nccs2)s1)c1ccc2c(c1)NC(=O)c1ccccc1O2 [compound 1893]
- AD38 Viability Normalized Result (cmpd/DMSO %) at 10 μM (AD38 cells): 91%
- activity at 10 µM [1]: 2%

SMILES: O=C(NCc1cnc(-c2ccc(OCCCN3CCCCC3)cc2)s1)c1ccc2c(c1)NC(=O)c1ccccc1O2 [compound 11160, 11-oxo-N-((2-(4-(3-(piperidin-1-yl)propoxy)phenyl)thiazol-5-yl)methyl)-10, 11-dihydrodibenzo [b, f] [1, 4] oxazepine-8-carboxamide]
- AD38 Viability Normalized Result (cmpd/DMSO %) at 10 μM (AD38 cells): 104%
- activity at 10 µM [1]: 17.7%

SMILES: Nc1ncc(-c2ncc(CNC(=O)c3ccc4c(c3)NC(=O)c3ccccc3S4(=O)=O)s2)cn1 [compound 1673]
- AD38 Viability Normalized Result (cmpd/DMSO %) at 10 μM (AD38 cells): 105%
- activity at 10 µM [1]: 3.2%

SMILES: O=C(NCc1cnc(-c2cnco2)s1)c1ccc2c(c1)NC(=O)c1ccccc1S2(=O)=O [compound 1957]
- AD38 Viability Normalized Result (cmpd/DMSO %) at 10 μM (AD38 cells): 94%
- activity at 10 µM [1]: 1.5%

SMILES: CC(=O)NCCCOc1ccc(-c2ncc(CNC(=O)c3ccc4c(c3)NC(=O)c3ccccc3S4(=O)=O)s2)cc1 [compound 1991]
- AD38 Viability Normalized Result (cmpd/DMSO %) at 10 μM (AD38 cells): 98%
- activity at 10 µM [1]: 2%

SMILES: O=C(NCc1nccs1)c1ccc2c(c1)NC(=O)c1ccccc1S2(=O)=O [compound 1650]
- AD38 Viability Normalized Result (cmpd/DMSO %) at 10 μM (AD38 cells): 82%
- activity at 10 µM [1]: 58.8%

SMILES: Cc1c(C(=O)NCc2cnc(-c3ccc(C(N)=O)cc3)s2)ccc2c1NC(=O)c1ccccc1S2(=O)=O [compound 1878, N-((2-(4-carbamoylphenyl)thiazol-5-yl)methyl)-9-methyl-11-oxo-10, 11-dihydrodibenzo [b, f] [1, 4] thiazepine-8-carboxamide 5,5-dioxide]
- AD38 Viability Normalized Result (cmpd/DMSO %) at 10 μM (AD38 cells): 103%
- activity at 10 µM [1]: 1%

SMILES: O=C(NCc1cnc(-c2ccc(O)cc2)s1)c1ccc2c(c1)NC(=O)c1cc(Cl)ccc1S2 [compound 1760]
- AD38 Viability Normalized Result (cmpd/DMSO %) at 10 μM (AD38 cells): 94%
- activity at 10 µM [1]: 6.4%

SMILES: O=C(NCc1cnc(N2CCCCC2)s1)c1ccc2c(c1)NC(=O)c1ccccc1S2(=O)=O [compound 1905]
- AD38 Viability Normalized Result (cmpd/DMSO %) at 10 μM (AD38 cells): 109%
- activity at 10 µM [1]: 0.3%

SMILES: N#Cc1ccnc(-c2ncc(CNC(=O)c3ccc4c(c3)NC(=O)c3ccccc3S4(=O)=O)s2)c1 [compound 11051]
- AD38 Viability Normalized Result (cmpd/DMSO %) at 10 μM (AD38 cells): 103%
- activity at 10 µM [1]: 1.2%

SMILES: CN(CCCCc1ccc(-c2ncc(CNC(=O)c3ccc4c(c3)NC(=O)c3ccccc3S4(=O)=O)s2)cc1)C1CC1 [compound 11094]
- AD38 Viability Normalized Result (cmpd/DMSO %) at 10 μM (AD38 cells): 94%
- activity at 10 µM [1]: 0.6%

SMILES: Cc1ncc(CNC(=O)c2ccc3c(c2)NC(=O)c2cc(Cl)ccc2S3)s1 [compound 1541]
- AD38 Viability Normalized Result (cmpd/DMSO %) at 10 μM (AD38 cells): 98%
- activity at 10 µM [1]: 3.7%

SMILES: CN1CCN(c2ncc(CNC(=O)c3ccc4c(c3)NC(=O)c3ccccc3O4)s2)CC1 [compound 1694]
- AD38 Viability Normalized Result (cmpd/DMSO %) at 10 μM (AD38 cells): 91%
- activity at 10 µM [1]: 61.1%

SMILES: N#Cc1ncc(CNC(=O)c2ccc3c(c2)NC(=O)c2ccccc2S3(=O)=O)s1 [compound 1628]
- AD38 Viability Normalized Result (cmpd/DMSO %) at 10 μM (AD38 cells): 95%
- activity at 10 µM [1]: 21.8%

SMILES: CN1c2ccc(C(=O)NCc3cnc(-c4ccc(O)cc4)s3)cc2NC(=O)c2ccccc21 [compound 1732]
- AD38 Viability Normalized Result (cmpd/DMSO %) at 10 μM (AD38 cells): 100%
- activity at 10 µM [1]: 18.8%

SMILES: O=C(NCc1cnc(-c2ccc(OCCCN3CCOCC3)cc2)s1)c1ccc2c(c1)NC(=O)c1ccccc1O2 [compound 11161, N-((2-(4-(3-morpholinopropoxy)phenyl)thiazol-5-yl)methyl)-11-oxo-10, 11-dihydrodibenzo [b, f] [1, 4] oxazepine-8-carboxamide]
- AD38 Viability Normalized Result (cmpd/DMSO %) at 10 μM (AD38 cells): 104%
- activity at 10 µM [1]: 1.7%

SMILES: O=C(NCc1cnc(-c2ccc(F)cn2)s1)c1ccc2c(c1)NC(=O)c1ccccc1S2(=O)=O [compound 11040]
- AD38 Viability Normalized Result (cmpd/DMSO %) at 10 μM (AD38 cells): 104%
- activity at 10 µM [1]: 1.9%

SMILES: CN(C)c1ccc(-c2ncc(CNC(=O)c3ccc4c(c3)NC(=O)c3ccccc3S4(=O)=O)s2)cn1 [compound 1674]
- AD38 Viability Normalized Result (cmpd/DMSO %) at 10 μM (AD38 cells): 121%
- activity at 10 µM [1]: 0.3%

SMILES: Cc1c(C(=O)NCc2cnc(-c3ccc(OCCCN(C)C)cc3)s2)ccc2c1NC(=O)c1ccccc1O2 [C44-01]
- AD38 Viability Normalized Result (cmpd/DMSO %) at 10 μM (AD38 cells): 97%
- activity at 10 µM [1]: 2.6%

SMILES: Cc1cc2c(cc1C(=O)NCc1cnc(-c3ccc(C#N)cc3)s1)NC(=O)c1ccccc1S2(=O)=O [compound 1911]
- AD38 Viability Normalized Result (cmpd/DMSO %) at 10 μM (AD38 cells): 111%
- activity at 10 µM [1]: 0.4%
